Data set [1] addresses fatty acid amide hydrolase (FAAH) (Rattus norvegicus (Rat), UniProt P97612). Briefly: FAAH enzyme assay: inhibition of anandamide (AEA) hydrolysis, arachidonic acid quantified by HPLC. Format: biochemical. Particulars: for IC50 / Ki: eight-point assay; for IC50: anandamide hydrolysis by FAAH, read-out: IC50; for Ki: calculated with Prizm software, read-out: Ki; for inhibition at 100 µM: one-point assay, inhibitor 100 μM, partially purified rat brain FAAH, 15 min, read-out: % Inhibition (Concentration). As to the method: The resulting supernatant is injected onto the HPLC.

Results on twelve compounds are retold here after patent US9102622B2 (University of Connecticut, priority 2006, dated 2015).

Chain of fatty acid amide hydrolase (FAAH) (P97612 whole entry): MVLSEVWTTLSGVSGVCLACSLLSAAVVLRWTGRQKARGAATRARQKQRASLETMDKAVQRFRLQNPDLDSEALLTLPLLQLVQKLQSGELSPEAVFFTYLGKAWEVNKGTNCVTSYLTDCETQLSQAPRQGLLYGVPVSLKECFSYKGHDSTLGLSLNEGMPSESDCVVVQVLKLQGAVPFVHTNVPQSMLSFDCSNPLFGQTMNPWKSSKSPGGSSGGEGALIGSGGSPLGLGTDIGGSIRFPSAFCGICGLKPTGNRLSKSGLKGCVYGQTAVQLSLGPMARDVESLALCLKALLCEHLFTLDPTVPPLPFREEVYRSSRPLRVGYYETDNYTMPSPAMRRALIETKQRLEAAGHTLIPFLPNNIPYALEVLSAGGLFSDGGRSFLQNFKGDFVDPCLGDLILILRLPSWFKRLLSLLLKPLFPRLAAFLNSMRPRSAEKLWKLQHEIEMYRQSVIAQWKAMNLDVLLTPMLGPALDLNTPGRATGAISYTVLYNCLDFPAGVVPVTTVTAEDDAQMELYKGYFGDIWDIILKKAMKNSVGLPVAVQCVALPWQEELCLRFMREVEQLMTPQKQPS

Take `COS(=O)(=O)CCCCCCCc1ccc(OCc2ccccc2)cc1` [Compound 18, 7-(4-Benzyloxy-phenyl)-heptane-1-sulfonic acid methyl ester]: the melting point (usually the temperature, or range, at which the solid turns liquid) lay within 57 to 59 °C. In data set [1], the IC50 – broadly, the concentration needed to halve the response being measured – is 256 nM; the inhibition constant (Ki) (as a rule, a measure of affinity in units of concentration, obtained from inhibition or displacement) is 78 nM; the inhibition at 100 µM was found to be 93%.
`O=C(CCCOc1ccc(OCc2ccccc2)cc1)C(F)(F)F` [Compound 23.1, 1,1,1-Trifluoro-5-[4-(benzyloxy)phenoxy]-2-pentanone]: the melting point fell in the range of 59 to 61 °C. In data set [1], the IC50 was determined as 1800 nM, the inhibition constant Ki was 150 nM and the inhibition at 100 µM came to 96%.
The like results for `O=C(CCCCOc1ccc(OCc2ccccc2)cc1)C(F)(F)F` [Compound 23.2, 1,1,1-Trifluoro-6-[4-(Benzyloxy)phenoxy]-2-hexanone] were, in that order, 95.5 to 96 °C, 13600 nM, 1200 nM and 76%.
The like results for `O=C(CCCCCOc1ccc(OCc2ccccc2)cc1)C(F)(F)F` [Compound 23.3, 1,1,1-Trifluoro-7-[4-(Benzyloxy)phenoxy]-2-heptanone] were, in that order, 59 to 60 °C, 2900 nM, 320 nM and 94%.
The like results for `O=C(CCCCCCOc1ccc(OCc2ccccc2)cc1)C(F)(F)F` [Compound 23.4, 1,1,1-Trifluoro-8-[4-(Benzyloxy)phenoxy]-2-octanone] were, in that order, 82 to 83 °C, 11800 nM, 830 nM and 88%.
In turn, `O=C(CCCOc1ccccc1OCc1ccccc1)C(F)(F)F` [Compound 23.8, 1,1,1-Trifluoro-5-[2-(Benzyloxy)phenoxy]-2-pentanone] came in with a melting point of 50 to 51 °C. Further, in data set [1], the IC50 amounted to 34600 nM, the Ki was 2280 nM and the inhibition at 100 µM was determined as 46%.
The like results for `O=C(CCCCCOc1ccccc1OCc1ccccc1)C(F)(F)F` [Compound 23.10, 1,1,1-Trifluoro-7-[2-(Benzyloxy)phenoxy]-2-heptanone] were, in that order, 31 to 32 °C, 7900 nM, 553 nM and 95%.
Compound `O=C(CCCCOc1ccccc1)C(F)(F)F` [Compound 23.12, 1,1,1-Trifluoro-6-phenoxy-2-hexanone] came in with a melting point of 50 to 51 °C. In addition, in data set [1], the half-maximal inhibitory concentration (IC50) came out at 25400 nM, the Ki was 2800 nM and the inhibition at 100 µM worked out at 65%.
Compound `O=C(CCCCOc1ccc(O)cc1)C(F)(F)F` [Compound 24.2, 1,1,1-Trifluoro-6-[4-(hydroxy)phenoxy]-2-hexanone] yielded a melting point of 63 to 64 °C. For the same compound, in data set [1], the IC50 is 23200 nM, the Ki is 2600 nM and the inhibition at 100 µM amounted to 60%.
For `O=C(CCCCCCOc1ccc(O)cc1)C(F)(F)F` [Compound 24.4, 1,1,1-Trifluoro-8-[4-(hydroxy)phenoxy]-2-octanone], in that order: 61 to 62 °C, 760 nM, 54 nM and 89%.
The like results for `O=C(CCCCOc1ccccc1O)C(F)(F)F` [Compound 24.9, 1,1,1-Trifluoro-6-[2-(hydroxy)phenoxy]-2-hexanone] were, in that order, 51 to 52 °C, 23900 nM, 1600 nM and 60%.
In turn, `Cc1nnc(C(=O)c2cccc(-c3cccc(OCc4ccccc4)c3)c2)o1` [Compound 78, 1-(3′-Benzyloxy-1,1′-biphenyl-3-yl)-1-(5-methyl-1,3,4-oxadiazol-2-yl)-ketone] yielded a melting point of 97 to 99 °C. Also, in data set [1], the inhibition at 100 µM was 56%.
